From a melting point compilation (Tetko et al.; mined from patent text by program, amines drawn as free bases though some values may be those of a salt) come the findings set out here.

For orientation: melting point means the temperature of the solid-liquid transition.

As to `O=C(CCCCN1CCC(Cc2ccccc2)CC1)c1ccc2c(c1)C(=O)c1cc(C(=O)CCCCN3CCC(Cc4ccccc4)CC3)ccc1-2`, the melting point is 124 to 126 °C.
In turn, `NCCCNc1cccc2c1C(=O)c1ccccc1C2=O` registered a melting point of 106 to 108 °C.
`CCc1n[nH]c(CC)c1CCOCCOc1ccc(OC)cc1Cl` had a melting point of 90 to 92 °C.
`CCCCCC(=O)CCC(C)=O` registered a melting point of 18 °C.
As for `COC1CSC2=C(SC1)C(OC(=O)N1CCN(C)CC1)N(c1ccc(Cl)cn1)C2=O` (centres undefined), the melting point amounted to 197 °C.
With `O=C1N(Cc2ccc(Cl)cc2)c2ccccc2C1(O)CC(F)(F)c1cccs1` (centres undefined), the melting point fell in the range of 121 to 123 °C.
`COC(=O)C1Cc2c([nH]c3ccccc23)C(c2ccc(O)c(OC)c2)N1` (centres undefined): the melting point was found to be 195 °C.
The value for `CCCCc1cc2c(=O)n3cc(C(=O)O)ccc3nc2s1` was 250 to 252 °C.
Compound `CSCCOc1ccc(-c2coc3ccc(-c4nnc(C)o4)cc23)cc1` had a melting point of 89 to 90 °C.
In turn, `C#CCOc1cc(OCC#C)c2c(=O)cc(-c3ccc(OC)c(OCC#C)c3)oc2c1` yielded a melting point of 196 °C.
The result for `N#CCNC(=O)C1(NC(=O)c2ccc(C3CCN(C4CCCC4)CC3)cc2)CCCCC1` reads 233 to 234 °C.
For the compound `COc1ccc(-c2cc3c(OC)cc(OC)cc3nc2OC)cc1`, the melting point fell in the range of 106 to 107 °C.
For `CNc1c(C#N)cnn1-c1ccc(Cl)c(Cl)c1Cl`, the melting point lay within 163 to 165 °C.
As to `CCOC(=O)N1CCC(Nc2nc3ccccc3n2Cc2ccc(F)cc2)CC1`, the melting point was found to be 181 °C.
The result for `Nc1ccc(-n2cnnc2)cc1C(F)(F)F` reads 196 to 198 °C; that for `CC(CN1CCCC1)N1c2ccccc2Sc2ccc(C(=O)NCc3cccc(F)c3)cc21` (racemic), 165 °C; that for `CC(=O)Nc1ccccc1C(=O)C=CN(C)C`, 90 to 95 °C.
The result for `CCNC(=O)Nc1nc2ccc(Cc3ccccn3)cc2s1` reads 184 to 185 °C.
In the case of `CC(=S)NCC1CN(c2ccc(N3CCSCC3)c(F)c2)C(=O)O1` (centres undefined), the melting point was in the range of 155 to 156 °C.
The compound `CCCCc1nc(C)n2[nH]c(=O)nc2c1Cc1ccc(-c2ccccc2C(=O)O)cc1` came in with a melting point of 210 to 211 °C.
`CC(C)n1nc(-c2cccc(Cl)c2)c2ncccc2c1=O`: the melting point lay in the range of 80 to 81 °C.
As for `COC(=O)C=Cc1cccc2c3c(n(C)c12)CCN(Cc1nc[nH]c1C)C3=O`, the melting point was in the range of 175 to 178 °C.
As for `Cc1nc(N2CCc3ccccc3CC2)c(C#N)c(=O)n1OCC(F)(F)F`, the melting point is > 200 °C.
As for `Clc1cccc2c3c([nH]c12)CCCC3`, the melting point was in the range of 144 to 146 °C.
As to `N#Cc1ccc(-c2nc(S)[nH]c2-c2ccc(Br)cc2)cc1`, the melting point was in the range of 307 to 311 °C.
In turn, `CCOC(=O)C1=NN(C(=O)c2ccccc2)C(C(=O)OCC)=NN1C(=O)c1ccccc1` yielded a melting point of 134 °C.
`CCc1nc2c(N)nc3ccccc3c2n1CCCCNS(=O)(=O)c1ccccc1` showed a melting point of 181 to 182 °C.
The value for `OCC1OC(n2cnc3c(NNC4COc5ccccc5C4)ncnc32)C(O)C1O` (centres undefined) was 109 to 112 °C; that for `Cc1ccccc1COc1cccnc1NC(=N)Nc1ccc(Cl)cc1` was 158 to 159 °C.
As to `COc1ccccc1Sc1c(O)cc(-c2ccccc2)oc1=O`, the melting point fell in the range of 208 to 209 °C.
In turn, `O=c1ccc(-c2ccc(Cl)cc2)c[nH]1` yielded a melting point of 183 to 186 °C.
The compound `CC(C)(C)NC(=O)[C@@H]1[C@@H](OC(=O)c2ccccc2)CCN1C(=O)OC(C)(C)C` returned a melting point of 132 to 134 °C.
`NC(=O)NN=Cc1ccc(OC2CCCCCC2)cc1` came in with a melting point of 215 to 216 °C.
For `CCSc1cc(C)nc(SCC)c1NC(=O)CCCCCCCCSc1nc2ccccc2s1`, the melting point was in the range of 88 to 92 °C.
`CCOC(=O)C=CC=Cc1cccc2cncn12`: the melting point was in the range of 101 to 103 °C.
The compound `Cc1cc(SC(C)C)c(NC(=O)CCCCCCSc2nc3c(C)c(Cl)cc(C(C)C)c3o2)c(SC(C)C)n1` displayed a melting point of 91 to 93 °C.
For the compound `COc1cc(Nc2nccc(-c3ccc(N4CCCCC4CO)nc3)n2)cc(OC)c1OC` (centres undefined), the melting point came to 93 °C.
The compound `COC(=O)c1ccc(-c2cccc(OC)c2)nc1` gave a melting point of 89.5 to 90 °C.
As for `CCCCNC(=O)c1ccco1`, the melting point is 43.8 °C.
`CC(C)(C)CNc1nc(Cl)cc(N2CCCC2)n1` had a melting point of 147 to 150 °C.
For `COC(=O)Cc1cn(Cc2ccccc2)nc1OCCCc1cc(O)nn1Cc1ccc(Cl)cc1Cl`, the melting point is 106 to 107 °C.
As for `CCOc1cc([C@@H](CS(C)(=O)=O)N2Cc3cccc(NCC4CC4)c3C2=O)ccc1OC`, the melting point fell in the range of 147 to 149 °C.
Regarding `N#CC1=C(c2ccccc2)Nc2n[nH]cc2C1c1cccc(C(F)(F)F)c1Cl` (centres undefined), the melting point is > 250 °C.
`O=C(NCC12CC3CC(CC(C3)C1)C2)c1cc(-c2cccnc2N2CCCC(C(=O)O)C2)ccc1Cl` (centres undefined) had a melting point of 125 to 130 °C.
In the case of `COc1ccc(S(=O)(=O)C(CCCc2ccccc2)CC(=O)O)cc1OC` (centres undefined), the melting point fell in the range of 161 to 162 °C.
As for `Oc1cccc2c1CCC(N(CCCF)CCc1cccs1)C2` (centres undefined), the melting point fell in the range of 105 to 109 °C.
The result for `CC1(C)C(=O)N(c2ccc(C#N)c(C(F)(F)F)c2)C(=O)N1CCCCCl` reads 80 to 81 °C; that for `Cc1cc2ncc(Nc3cccc(Cl)c3)nc2cc1C`, 175 °C; that for `COC(=O)c1cccc(CC(=O)Nc2cccc(/C=C/c3nc(C4CCC4)cs3)c2)c1`, 119 to 120 °C.
As to `CON1C(=O)[C@H](Cc2c[nH]c3ccccc23)NC(=O)[C@@H]1CC(C)C`, the melting point fell in the range of 100 to 101 °C.
`O=C1CCc2cc(-c3ccccc3)ccc21` gave a melting point of 75 °C.
The compound `COc1ccc(C=C(C(C)=O)C(C)=O)cc1` came in with a melting point of 70 to 72 °C.
The result for `CC(Oc1ccc(Cl)cc1)c1ccnn2cnnc12` (centres undefined) reads 98 to 99 °C; that for `CN1C(=O)CC[C@]2(C)c3ccc(Sc4ncccc4[N+](=O)[O-])cc3CC[C@@H]12`, 80 to 84 °C; that for `COC(=O)Oc1cc(NC(=O)OCc2ccccc2)c(F)cc1Cl`, 70 to 72 °C.
The result for `Cc1c(OCc2ccccc2)ccc(-c2cc(O)c(SCCc3ccccc3)c(=O)o2)c1O` reads 147 to 148 °C; that for `O=C(O)Cn1cc(Cc2nc3c(F)c(F)cc(F)c3s2)c2c(Cl)cccc21`, 203 to 206 °C; that for `ClC1=NC(Cl)(C(Cl)(Cl)Cl)N=C1Cl`, 66 to 68 °C.
For the compound `Cc1ccc(S(N)(=O)=O)cc1NC(=O)c1cnn2c(C(F)F)cc(-c3ccc(C(F)(F)F)cc3)nc12`, the melting point came to 293 °C.
On to `CCCC(=O)CC1NC(=O)c2ccsc2-n2cccc21` (centres undefined), for which the melting point was found to be 186 °C.
Regarding `CCC(=S)C1Cc2c(OC)ccc(OC)c2CO1` (centres undefined), the melting point came to 99.2 °C.
The value for `CC1(OCc2ccccc2)CCCC(C)(C(=O)Nc2ccccc2)O1` (centres undefined) was 55 to 56 °C; that for `CC(C)(C)OC(=O)N(CCO)C1CCN(c2ccc3c(NC(=O)CC4CCCCC4)c(Cl)ccc3n2)C1` (centres undefined) was 115 to 120 °C; that for `COC(=O)OCC1OC(n2cc(C)c(=O)[nH]c2=O)C(OC(=O)c2cccc(C(F)(F)F)c2)C1OS(C)(=O)=O` (centres undefined) was 94 to 96 °C.
The result for `Cc1ccc2c(-c3nnn[nH]3)cn(Cc3ccc4oc(-c5nc(C(C)(C)C)cs5)cc4c3)c2c1` reads 240 to 245 °C.
The value for `NNc1nc(Cl)nc2ccc(Cl)cc12` was > 280 °C; that for `Oc1cccc(O)c1CCC(F)(F)F` was 82 to 84 °C; that for `CN(C)c1ccc(C2OC(C)(C)N=C2c2ccccc2Cl)cc1` (centres undefined) was 72.5 to 73.5 °C.
In turn, `CC(C)(C)c1ccc(C2(Cl)CN(C(c3ccccc3)c3ccccc3)C2)cc1` had a melting point of 145 °C.
Compound `COc1cc([N+](=O)[O-])ccc1N1C(=O)C(=O)N(c2cccc(Cl)c2)C1=O` gave a melting point of 176 to 178 °C.
`S=C=Nc1ccc(Sc2nc3ccccc3s2)cc1`: the melting point lay in the range of 84.5 to 86 °C.
The value for `CCc1nc2ccc3c(c2nc1CC)OC(COS(=O)(=O)c1ccc(C)cc1)CO3` (centres undefined) was 132 to 135 °C; that for `CC(C)(C=NO)Cc1ccc(Cl)c(Cl)c1` was 84 °C; that for `CCCCCc1cccc2c1C(=O)N(OC1C(CO)OC(n3cnc4c(N)ncnc43)C1O)C2=O` (centres undefined) was 159 to 160 °C.
`CCOC(=O)CCNC(=O)C(=Cc1ccccc1)CSC(=O)c1ccccc1`: the melting point was < 50 °C.
In turn, `CNC(=O)/C(=N/OC)c1ccccc1Oc1cc(C)cc(C)c1` came in with a melting point of 90 to 91 °C.
As to `CC(=O)Cn1c(=O)n(C2CCN(CCCC(c3ccc(F)cc3)c3ccc(F)cc3)CC2)c2ccc(Cl)cc21`, the melting point was determined as 175 °C.
`CC(C)n1cc(-c2nc(C(N)=O)c(N)nc2-c2ccccc2OC(F)(F)F)ccc1=O` yielded a melting point of 206 °C.
Compound `O=c1c2cnc(-c3ccccc3)nc2sn1CCc1ccccc1` yielded a melting point of 144 to 147 °C.
Take `CCOC(=O)C1=C(C)Nc2c(C(=O)OCC)ncn2C1c1cccc([N+](=O)[O-])c1` (centres undefined): the melting point is 160 to 162 °C.
In turn, `N#CCOc1ccc2cc(CNC(=O)c3cc4ccccc4o3)ccc2c1` registered a melting point of 138 to 139 °C.
The value for `CCC1=C(O)C(C(C)=O)C(=O)OC1=O` (centres undefined) was 212 °C; that for `O=[N+]([O-])c1ccc2[nH]c(C(F)(F)F)cc2c1` was 190 to 193 °C; that for `COc1cc2nc(N)nc(-c3ccc(O)c(I)c3)c2cc1OC` was 248 to 250 °C.
Regarding `CCOc1c(C)cnc(CSc2nc3cc4c(cc3[nH]2)OCO4)c1C`, the melting point lay in the range of 184 to 185 °C.
The result for `Cc1c(N)c(=O)n2c3c(cc(C(O)(C(F)(F)F)C(F)(F)F)cc13)CC2` reads 292 to 293 °C.
In the case of `CC1(C)CC(=O)c2cc3c(cc2O1)OCCO3`, the melting point is 118 to 119 °C.
In the case of `COc1cc2c(cc1I)CCC2=O`, the melting point is 140 °C.
In turn, `CN1CCN(C2=Nc3ccccc3Nc3nn(C)nc32)CC1` gave a melting point of 182 to 184 °C.
